Experimental data reported in patent US8389739B1, “Modulators of retinoid-related orphan receptor gamma” (Orphagen Pharmaceuticals, priority 2006, dated 2013).
pEC50: −log10 of the molar value. Read-outs that look alike come from different tables or passages of the source.

Tests used:
mRORγ LBD = target: T1, mRORγ LBD (Mus musculus, UniProt P51450); assay: Biochemical assay, coregulatory peptide recruitment to GST-RORγ LBD (FRET)
T1 construct: made in house; host or cells: Sf9 insect cells, baculovirus; cleared lysate used directly
T1 sequence (P51450 251-516): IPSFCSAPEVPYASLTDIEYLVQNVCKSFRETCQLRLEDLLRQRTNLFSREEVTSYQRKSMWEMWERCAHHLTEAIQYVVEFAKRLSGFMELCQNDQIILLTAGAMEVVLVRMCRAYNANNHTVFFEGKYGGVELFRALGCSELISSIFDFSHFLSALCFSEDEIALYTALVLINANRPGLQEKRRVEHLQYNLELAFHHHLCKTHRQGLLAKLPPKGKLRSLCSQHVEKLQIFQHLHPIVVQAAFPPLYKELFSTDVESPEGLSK
Excerpt: GST-RORγ was generated by subcloning the RORγ-LBD into pET-41a, a vector which expresses GST fusion proteins in bacteria.
The cloning steps for GST-RORγ were as follows. The mRORγ LBD was excised from Gal4-mRORγ (see above for cloning steps) at BamHI and HindIII sites of Sequence 1 and cloned into the corresponding sites of pET-41a(+) (EMD Biosciences, San Diego, Calif.). A GST-mRORγ fragment was then excised from pET-41a(+) at XbaI and XhoI sites and cloned into a pcDNA3.1vector (Invitrogen, Carlsbad, Calif.) restricted at NheI and XhoI sites. Plasmid GST-mRORγ-pcDNA3.1 was used as a PCR template to generate a GST-mRORγ fragment that was later cloned into pENTR/D-TOPO vector (Invitrogen, Carlsbad, Calif.) by standard cloning techniques recommended by the manufacturer of the vector. The nucleotide sequence of GST-mRORγ is shown below:
For baculoviral expression of RORγ, the cDNA fragment of GST-RORγ— LBD, was subcloned from pET-41a into the pENTR/D-TOPO vector using a commercially-available kit (BaculoDirect, Invitrogen). Briefly, GST-RORγ carried by pENTR/D-TOPO was transfected into mono-layer Sf9 cells (8×10^5/well in 6-well plates) by Cellfectin (Invitrogen). Sf9 cells were incubated at 27° C. in a non-humidified incubator for 72 hours. Cell media was collected as P1 viral stock and used to further infect Sf9 cells to generate P2 and P3 virus. […] A plaque assay was performed to determine the titer of P3 virus and to isolate single plaques. P4 virus was generated from a single plaque and propagated on a larger scale.
Adherent SF9 cells were infected with baculovirus carrying GST-RORγ and were cultured for 72 hours. Sf9 cell were then subject to a brief sonication in a lysis buffer (20 mM phosphate, pH 6.8, 50 mM KCl, 50 mM NaCl, 0.5 mM EDTA, 50% glycerol, 0.001% NP-40 and 1 mM DTT) and centrifuged at 3000 rpm for 15 minutes. […] Cleared cell lysate was stored at −70° C. and is directly utilized in the coregulatory peptide recruitment assay.
The labeled probes anti-GST-APC and SA-RPE were purchased from Prozyme (San Leandro, Calif.). Compounds were added directly from a DMSO solution to a final concentration of 1-2% DMSO. Fluorescence was measured on a Wallac Victor 2 V plate reader equipped with a 670/40 nm filter (Omega Optical, Brattleboro, Vt.) for APC emission (Channel A) and a 600/25 bandpass filter for monitoring the RPE emission (Channel B).

[1] = target: T2, hPR (progesterone receptor) (Homo sapiens, UniProt P06401); assay: Crossreactive receptor transcriptional assay (Gal4 hybrid); format: cell-based
T2 construct: 687-933; expressed in transfected cells; host or cells: CHO cells, transient transfection
T2 sequence (P06401 687-933): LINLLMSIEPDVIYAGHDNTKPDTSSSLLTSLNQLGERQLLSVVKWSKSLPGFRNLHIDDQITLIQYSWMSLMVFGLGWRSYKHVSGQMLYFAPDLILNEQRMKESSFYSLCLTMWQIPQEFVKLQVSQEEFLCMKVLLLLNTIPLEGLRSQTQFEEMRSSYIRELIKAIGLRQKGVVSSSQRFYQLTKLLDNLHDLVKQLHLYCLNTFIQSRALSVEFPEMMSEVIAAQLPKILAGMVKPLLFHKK
Method: (§1) A firefly luciferase reporter gene for Gal4 DBD hybrid receptors, such as Gal4-RORγ, contains five copies of the Gal4 17-mer response element in its promoter and the coding sequence for firefly luciferase (pG5-luc, Promega). CHO (Chinese Hamster Ovary) cells were cultured in Ham's F12 medium supplemented with 10% fetal calf serum (Gemini Biologicals), 10 μg/ml penicillin and streptomycin, and were maintained in a humidified 37° C. incubator (Thermo Electron, Steri-Cycle) with 5% CO2. 24 hours before transfection, cells were plated in T175 flasks (5×10^6 cells/flask) or T75 flasks (1.7×10^6 cells/flask). Transient transfection of CHO cells was performed using TransIT-CHO reagents (Minis, Madison, Wis.) with a mixing ratio of 2:6:1 between plasmid DNA (in μg), TransIT-CHO (in μl) and CHO-mojo (in μl).
(§2) Plates are maintained at 37° C. in a humidified atmosphere with 7% CO2 overnight. Four (4) hours after cell seeding, compounds dissolved in DMSO at 10 mM were added to cells at final concentrations of 20 micromolar (μM) to 20 nanomolar (nM) in 0.2% DMSO in triplicate plates. Approximately 40 hours later, cytotoxicity in the assay well was characterized by addition of the dye resazurin (O'Brien, Wilson et al. 2000) to a final concentration of 3 μM. […] Percent viability was determined as 2 hour fluorescence, minus background at t=0 hours, normalized to DMSO controls. For detection of luciferase activity, media was removed from plates after the measurement of resazurin conversion, and SteadyLite luciferase reagent (Perkin-Elmer) was added (30 μl/well). Luminescence is detected with a Victor 2-V plate reader (Perkin-Elmer) and normalized to luciferase activity of DMSO control wells alone.

[2] = target: T3, mLXRα (Liver X receptor alpha) (Mus musculus, UniProt Q9Z0Y9); assay: Transcriptional assay of LXRα (Gal4-LXRα hybrid); format: cell-based
T3 construct: 172-455; expressed in transfected cells; host or cells: CHO cells, transient transfection
T3 sequence (Q9Z0Y9 172-445 limits assumed): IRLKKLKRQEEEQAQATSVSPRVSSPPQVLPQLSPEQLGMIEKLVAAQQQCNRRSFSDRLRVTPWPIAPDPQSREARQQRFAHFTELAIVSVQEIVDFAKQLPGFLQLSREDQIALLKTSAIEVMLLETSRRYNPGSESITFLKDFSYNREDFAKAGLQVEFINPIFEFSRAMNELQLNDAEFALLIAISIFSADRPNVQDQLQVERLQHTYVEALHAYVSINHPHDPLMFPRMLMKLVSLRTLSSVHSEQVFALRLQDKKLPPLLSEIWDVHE
Method: as §1, §2
A transcriptional assay for LXRα, using a Gal4-LXRα hybrid, was implemented in order to compare RORγ ligand potencies. In addition to LXRα, transcriptional assays for a number of other major nuclear receptors were developed.

[3] = Table 4A, peptide K1, no agonist present, medians of two or more assays, unit inferred, read-out: EC50 Biochemical
[4] = Table 6, read-out: Potency (EC50) at hPR
[5] = Table 6, read-out: Potency (EC50) at mLXRα

Row | Compound | pEC50 (mRORγ LBD; [3]) | pEC50 [1, 4] | pEC50 [2, 5] | further results
1 | CC(=O)O[C@H]1CC[C@@]2(C)C(CC[C@]3(C)C2C(=O)C=C2C4[C@@H](C)[C@H](C)CC[C@]4(C(=O)O)CC[C@]23C)C1(C)C (stereo in doubt) [OR-13571, 10-Acetoxy-1,2,6a,6b,9,9,12a-heptamethyl-13-oxo-1,3,4,5,6,6a,6b,7,8,8a,9,10,11,12,12a,12b,13,14b-octadecahydro-2H-picene-4a-carboxylic acid] | 5.92 | < 5.00 | < 5.00 | 
2 | C[C@@H]1CC[C@@]2(OC1)O[C@H]1C[C@H]3[C@@H]4CC[C@H]5C[C@@H](O)CC[C@]5(C)[C@H]4C[C@@H](O)[C@]3(C)[C@H]1[C@@H]2C [OR-885, 5α,20α, 22α, 25D-SPIROSTAN-3β, 12β-DIOL] |  |  |  | pEC50 (mRORγ LBD): 5.60; pEC50 [1]: < 5.00; pEC50 [2]: < 5.00
3 | COc1c(C=NNc2nc(N3CCCCC3)nc(N3CCCCC3)n2)cccc1[N+](=O)[O-] [OR-2161, N-(4,6-Di-piperidin-1-yl-[1,3,5]triazin-2-yl)-N′-(2-methoxy-3-nitro-benzylidene)-hydrazine] | 5.35 | < 5.00 | < 5.00 | 
4 | COC(C)CCC(C)C1CCC2C3CC(O)C4CC(O)CCC4(C)C3CCC12C (centres unmarked) [OR-12872, 17-(4-Methoxy-1-methyl-pentyl)-10,13-dimethyl-hexadecahydro-cyclopenta[a]phenanthrene-3,6-diol] |  | < 5.00 | < 5.00 | pEC50 (mRORγ LBD; Table 2, agonists, biotinylated peptide K, 50% of estimated maximum FRET signal, read-out: EC50 in micromolar at mRORγ Biochemical): 7.28; pEC50 (mRORγ LBD; agonist, read-out: potency in the biochemical assay): > 7.00
5 | CCn1c(CNc2ccc(Cl)cc2)nnc1SCC(=O)Nc1cccc2ccccc12 [OR-133008, 2-{5-[(4-Chloro-phenylamino)-methyl]-4-ethyl-4H-[1,2,4]triazol-3-ylsulfanyl}-N-naphthalen-1-yl-acetamide] | 5.79 | < 5.00 | < 5.00 | 

More lines, main results first:

Row | pEC50 (mRORγ LBD; [3]) | pEC50 [1, 4] | pEC50 [2, 5] | Compound | further results
6 |  | < 5.00 | 6.00 to 7.00 | O=S(=O)(c1ccccc1)N(CC(F)(F)F)c1ccc(C(O)(C(F)(F)F)C(F)(F)F)cc1 [Compound T0901317, N-(2,2,2-Trifluoro-ethyl)-N-[4-(2,2,2-trifluoro-1-hydroxy-1-trifluoromethyl-ethyl)-phenyl]-benzenesulfonamide, reference compound] | Emax [2]: 100%; pEC50 ([2]; Table 7, no unit printed for this column (b114 gives 1.5 μM for OR-1050), read-out: Transcriptional Assay of LXRα EC50): 6.85; Efficacy at mLXRα ([2]; activity of standard ligand at 20 μM): 120X
7 |  | < 5.00 | 5.00 to 6.00 | CCN(c1ccc(C(O)(C(F)(F)F)C(F)(F)F)cc1)S(=O)(=O)c1ccc([N+](=O)[O-])cc1 [OR-1050, N-Ethyl-4-nitro-N-[4-(2,2,2-trifluoro-1-hydroxy-1-trifluoromethyl-ethyl)-phenyl]-benzenesulfonamide] | pEC50 (mRORγ LBD; Table 1, mRORγ and peptide K1, read-out: Assay EC50 in micromolar at mRORγ Biochemical): 6.05; pEC50 (mRORγ LBD; Table 7, taken from Table 1 (peptide K1), read-out: Assay EC50 in micromolar at mRORγ Biochemical): 6.05; Emax [2]: > 80%; potency in repression of RORγ transcription relative to induction of LXR transcription [2]: approximately 5 fold; specificity for RORγ versus LXRα ([2]; comparison of transcriptional assays for RORγ and LXRα (Table 7)): more specific for RORγ than LXRα; pEC50 ([2]; read-out: EC50 at LXRα in transcriptional assays): 5.82
